Laboratory results from publication doi:10.1101/2022.02.04.479214v1 (biorxiv, 2022).

How the values were obtained:
Experiment in all cases: CYP activity inhibition in microsomes
Type in all cases: biochemical
Settings in all cases: microsomes with NADPH; direct inhibition
CYP3A4 = CYP3A4 (Homo sapiens, UniProt P08684)
CYP2D6 = CYP2D6 (Homo sapiens, UniProt P10635)
CYP1A2 = target: T1, CYP1A2 (Homo sapiens, UniProt P05177)
T1 sequence (P05177 2-516): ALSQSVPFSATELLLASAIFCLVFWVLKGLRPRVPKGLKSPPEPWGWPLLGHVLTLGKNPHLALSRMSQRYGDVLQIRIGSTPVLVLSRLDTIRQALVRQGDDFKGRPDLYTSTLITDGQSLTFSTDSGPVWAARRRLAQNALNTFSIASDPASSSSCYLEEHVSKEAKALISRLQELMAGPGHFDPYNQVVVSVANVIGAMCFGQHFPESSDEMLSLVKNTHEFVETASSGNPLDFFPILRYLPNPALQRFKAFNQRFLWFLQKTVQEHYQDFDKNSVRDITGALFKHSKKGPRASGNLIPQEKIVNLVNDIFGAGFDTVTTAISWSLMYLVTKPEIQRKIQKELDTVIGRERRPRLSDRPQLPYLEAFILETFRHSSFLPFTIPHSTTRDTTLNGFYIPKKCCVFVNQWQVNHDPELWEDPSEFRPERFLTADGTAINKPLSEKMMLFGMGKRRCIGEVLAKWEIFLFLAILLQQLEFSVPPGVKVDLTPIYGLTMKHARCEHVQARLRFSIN

CYP2C19 = CYP2C19 (Homo sapiens, UniProt P33261)
CYP2C9 = CYP2C9 (Homo sapiens, UniProt P11712)

Measured: IC50

Sequence of CYP2C9 (P11712 whole entry): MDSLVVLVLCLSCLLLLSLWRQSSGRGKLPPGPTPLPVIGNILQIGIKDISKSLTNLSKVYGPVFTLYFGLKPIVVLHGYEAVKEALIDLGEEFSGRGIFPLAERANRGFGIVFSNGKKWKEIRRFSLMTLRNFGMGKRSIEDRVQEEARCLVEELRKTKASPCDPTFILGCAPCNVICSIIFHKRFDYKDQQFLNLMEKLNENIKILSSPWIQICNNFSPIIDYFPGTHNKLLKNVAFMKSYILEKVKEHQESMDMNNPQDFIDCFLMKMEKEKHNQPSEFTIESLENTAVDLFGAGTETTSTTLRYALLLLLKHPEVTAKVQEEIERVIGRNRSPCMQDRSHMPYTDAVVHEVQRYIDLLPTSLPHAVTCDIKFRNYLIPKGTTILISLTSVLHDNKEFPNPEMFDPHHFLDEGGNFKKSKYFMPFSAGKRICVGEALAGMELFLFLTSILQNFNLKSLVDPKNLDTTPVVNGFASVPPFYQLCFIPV
Sequence of CYP2C19 (P33261 whole entry): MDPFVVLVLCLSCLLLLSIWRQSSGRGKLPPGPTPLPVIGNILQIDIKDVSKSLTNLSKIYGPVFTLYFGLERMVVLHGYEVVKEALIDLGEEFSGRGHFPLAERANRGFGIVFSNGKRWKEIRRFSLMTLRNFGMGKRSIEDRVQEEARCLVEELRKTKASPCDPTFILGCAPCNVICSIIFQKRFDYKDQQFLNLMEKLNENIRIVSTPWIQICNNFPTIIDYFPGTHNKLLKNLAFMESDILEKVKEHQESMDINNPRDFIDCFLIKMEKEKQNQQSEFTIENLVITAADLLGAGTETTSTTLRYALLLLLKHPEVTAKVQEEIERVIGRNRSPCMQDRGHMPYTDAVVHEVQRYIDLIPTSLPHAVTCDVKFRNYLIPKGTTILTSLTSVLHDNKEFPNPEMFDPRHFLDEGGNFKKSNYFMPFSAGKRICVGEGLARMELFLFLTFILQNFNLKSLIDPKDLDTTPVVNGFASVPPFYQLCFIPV
Sequence of CYP3A4 (P08684 2-503): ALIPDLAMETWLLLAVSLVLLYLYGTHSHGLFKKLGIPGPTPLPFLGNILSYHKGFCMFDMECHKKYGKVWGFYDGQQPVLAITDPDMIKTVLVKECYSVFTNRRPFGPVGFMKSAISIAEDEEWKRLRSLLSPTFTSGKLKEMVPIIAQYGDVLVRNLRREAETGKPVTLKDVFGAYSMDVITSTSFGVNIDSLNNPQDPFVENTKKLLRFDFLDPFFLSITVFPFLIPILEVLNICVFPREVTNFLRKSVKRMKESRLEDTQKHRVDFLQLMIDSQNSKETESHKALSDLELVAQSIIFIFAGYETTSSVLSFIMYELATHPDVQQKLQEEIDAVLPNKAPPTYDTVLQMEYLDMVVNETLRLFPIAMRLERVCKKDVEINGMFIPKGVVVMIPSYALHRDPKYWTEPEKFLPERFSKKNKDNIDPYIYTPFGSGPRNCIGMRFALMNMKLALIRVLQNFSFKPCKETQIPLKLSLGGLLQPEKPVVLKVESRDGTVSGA
Sequence of CYP2D6 (P10635 whole entry): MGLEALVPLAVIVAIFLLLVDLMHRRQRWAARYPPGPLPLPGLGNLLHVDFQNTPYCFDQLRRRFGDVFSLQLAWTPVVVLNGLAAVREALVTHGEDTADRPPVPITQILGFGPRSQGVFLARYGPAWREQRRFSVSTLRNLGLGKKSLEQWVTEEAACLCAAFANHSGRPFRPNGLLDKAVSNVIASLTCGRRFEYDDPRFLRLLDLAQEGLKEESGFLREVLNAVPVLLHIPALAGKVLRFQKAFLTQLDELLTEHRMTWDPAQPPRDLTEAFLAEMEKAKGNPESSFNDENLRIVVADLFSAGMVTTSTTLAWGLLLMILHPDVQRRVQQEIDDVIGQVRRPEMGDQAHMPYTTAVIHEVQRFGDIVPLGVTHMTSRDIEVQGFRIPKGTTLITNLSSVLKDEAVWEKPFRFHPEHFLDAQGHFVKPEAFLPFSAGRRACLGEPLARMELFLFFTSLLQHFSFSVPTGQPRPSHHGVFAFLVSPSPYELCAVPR

Cc1cccc(OC2CCN(Cc3cc(=O)[nH]c(=O)[nH]3)CC2)c1C [GSK2556286]
> 25 µM: all assays above
